In brackets after ≈: the same amount, converted by molar mass. Bridge positions count the residues as written; N and C are the ends. Square brackets hold non-standard residues; d marks the D form. Ends that are not written are not given here. Peptide text beside a SMILES is read from it. Phe(4-guanidino) = N=C(N)Nc1ccc(C[C@H](N)C(=O)O)cc1

As usually defined, the CC50 is the concentration that lowers cell viability or growth by half. Higher therefore signals better tolerance by the cells. What is called viability is a read-out of living cells in per cent, often relative to untreated cells.

One data set is described as follows: circular dichroism. Conditions: water; pH ns; 25 °C; 150 uM.
The test system of the next data set is A. baumannii ATCC 19606. Kind of data set: microbe, parasite or virus in culture. Format: cell-based. The following applies: ATCC 19606. An outline of the steps: (§1)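 MICs were taken as three identical readings from four independent experiments, using mid-log cells at 2 × 10^6 cell/mL in Mueller Hinton medium incubated at 37 °C.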
In another data set the test system is B. megaterium BM11. Kind of data set: microbe, parasite or virus in culture. Format: cell-based. The following applies: BM11. An outline of the steps: as §1
For another data set, the system named is E. coli ATCC 25922. Kind of data set: microbe, parasite or virus in culture. Format: cell-based. The following applies: ATCC 25922. An outline of the steps:
as §1

The subject of the next data set is E. coli D21. Nature of the data set: microbe, parasite or virus in culture. It counts as cell-based. The following applies: D21. The method in brief: as §1
The next data set has as its system E. faecalis ATCC 29212. Nature of the data set: microbe, parasite or virus in culture. It counts as cell-based. Conditions: ATCC 29212. The method in brief:
as §1

The next data set concerns P. aeruginosa PAO1. Nature of the data set: microbe, parasite or virus in culture. It counts as cell-based. The following applies: PAO1. An outline of the steps: as §1
A further data set concerns S. agalactiae ATCC 27591. Nature of the data set: microbe, parasite or virus in culture. It counts as cell-based. The following applies: ATCC 27591. An outline of the steps:
as §1

For the next data set, the system named is S. aureus ATCC 25923. Nature of the data set: microbe, parasite or virus in culture. Format: cell-based. Conditions: ATCC 25923. The method in brief:
as §1

Data set [1] has as its system S. epidermidis ATCC 12228. Kind of data set: microbe, parasite or virus in culture. It counts as cell-based. Conditions: ATCC 12228. The method in brief:
as §1

Another data set has as its system all bacteria tested. Kind of data set: MIC panel, geometric mean over all strains. Format: cell-based. Conditions: geometric mean of the MICs against all bacteria tested. Here is the method: (§2) The antimicrobial efficacy of the TLcyc analogues was assessed against a representative panel of Gram-positive and Gram-negative bacterial strains, by determining their minimal inhibitory concentrations (MIC), as summarized in Table . To provide an integrated measure of antimicrobial potency, we calculated the geometric mean (GM) of MIC values across all strains (GMall), as well as separately for Gram-positive (GMGram+) and Gram-negative (GMGram–) bacteria.
(§3) Bacterial strains used in this study were the Gram-positive S. aureus ATCC 25923, S. epidermidis ATCC 12228, B. megaterium BM11, S. agalactiae ATCC 27591, E. faecalis ATCC 29212 and the Gram-negative E. coli ATCC 25922, P. aeruginosa ATCC 27853, A. baumannii ATCC 19606, E. coli D21 and P. aeruginosa PAO1. […] Bacterial cells in the mid log phase were diluted in Muller Hinton (MH) at a concentration of 2 × 10^6 cell/mL. Aliquots of 50 μL of this bacterial suspension were added to 50 μL of MH containing serial 2-fold dilutions of the peptides (from 100 to 0.19 μM) in the wells a 96-well plate. Ciprofloxacin was used as antibiotic control. The plate was then incubated at 37 °C. MICs were obtained from three identical readings of four independent experiments.

Data set [2] relates to Gram-positive bacteria tested. Kind of data set: MIC panel, Gram-positive strains (geometric mean, range). It counts as cell-based. Conditions: geometric mean of the MICs against Gram-positive bacteria tested. Here is the method: as §2, §3
Data set [3] has as its system Gram-negative bacteria tested. Nature of the data set: MIC panel, Gram-negative strains (geometric mean). Format: cell-based. The following applies: geometric mean of the MICs against Gram-negative bacteria tested. Here is the method: as §2, §3
Data set [4] is classed as cell-based, human. The following applies: human. An outline of the steps: (§4)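 Cells were plated at about 4 × 10^4/well in 2% FBS, then exposed to peptide at 100–3.12 μM in serum-free medium for 2 h or 24 h. Viability was measured by MTT reduction (0.5 mg/mL, 4 h, absorbance 570 nm) relative to untreated cells, as the mean ± SEM of three experiments.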
In data set [5] the test system is human keratinocytes (HaCaT cells). It counts as cell-based. The following applies: human, 24 h. The method in brief: as §4
Data set [6] is described as follows: Circular dichroism in water (BeStSel). Format: physicochemical. The following applies: predicted from CD spectra in H2O using BeStSel. Here is the method: The secondary structure of each peptide was studied in solution and in small unilamellar vesicles (SUVs) mimicking Gram-positive and Gram-negative membranes performing CD analysis. The CD spectrum for each peptide in solution was recorded at 150 μM, using the quartz cells of 0.1 cm path length with a Jasco J-1500 CD Spectrometer at 25 °C. SUVs at the concentration of 150 μM (P/L = 1) and […] (P/L = 0.4) were prepared as reported: the lipid film was hydrated with water for 1h and then sonicated for 30 min. CD spectra were recorded at the peptide/lipid ratio of 1:1 both in the presence with SUVs mimicking Gram-positive and Gram-negative membranes. CD spectra were recorded at 25 °C on a in a 0.1 cm quartz cell using three consecutive scans from 260 to 190 nm, 3 nm bandwidth, a time constant of 16 s, and a scan rate of 10 nm/min.

For data set [7] the following is noted: background value; cited from earlier work.
In data set [8] the test system is methicillin-resistant Staphylococcus aureus (MRSA). Conditions: MRSA strain; ref Verma et al.; cited from earlier work.
Data set [9] concerns the molecule itself. Nature of the data set: Thioflavin T fluorescence; LUVs of DOPE:DOPG:CL (65:23:12, mol/mol/mol) mimicking the Gram-negative membrane, 100 uM lipid, titrated with 5-50 uM peptide; 100 mM NaCl, 10 mM Tris-HCl, 25 uM ThT, pH 7.4; peptide oligomerisation within the vesicles.

In the data set “circular dichroism”, `CC[C@H](C)[C@H](NC(=O)[C@H](CCCNC(=N)N)NC(=O)[C@H]1CCC(=O)NCCCC[C@H](NC(=O)[C@H](Cc2ccccc2)NC(=O)[C@H](Cc2c[nH]c3ccccc23)NC(=O)[C@@H]2CCCN2C(=O)[C@@H](NC(=O)[C@@H](N)Cc2ccccc2)C(C)C)C(=O)N[C@@H](CCCNC(=N)N)C(=O)N[C@@H](Cc2ccccc2)C(=O)N[C@H](CC(C)C)C(=O)N1)C(=O)N[C@@H](CC(C)C)C(N)=O` [Peptide 9, FVPWF[KRFle]RIL] (H-FVPWFKRF[dL][dE]RIL-NH2; lactam 6-10) came in with a helicity of 11%. Besides, the MIC against A. baumannii ATCC 19606 stood at 3.12 µM (≈ 5.4 µg/mL). The MIC in the data set on B. megaterium BM11 was found to be 1.56 µM (≈ 2.7 µg/mL). The MIC with E. coli ATCC 25922 was found to be 6.25 µM (≈ 10.8 µg/mL). In the data set with E. coli D21, this molecule displayed an MIC of 6.25 µM (≈ 10.8 µg/mL). The molecule further registered an MIC in the data set with E. faecalis ATCC 29212 of 12.5 µM (≈ 21.7 µg/mL). This molecule also gave an MIC with P. aeruginosa PAO1 of 50 µM (≈ 86.6 µg/mL). The MIC with S. agalactiae ATCC 27591 stood at 3.12 µM (≈ 5.4 µg/mL). In addition, the MIC with S. aureus ATCC 25923 was 6.25 µM (≈ 10.8 µg/mL). This molecule also gave an MIC in [1] of 3.12 µM (≈ 5.4 µg/mL). In addition, the “geometric mean GMall” value with all bacteria tested amounted to 7.67 µM. For the same molecule, the “geometric mean GMGram+” value in [2] was 4.11 µM. Also, in data set [3], the “geometric mean GMGram–” value stood at 14.32 µM. Besides, in [4] (CC50), the CC50 at 24 h was more than 50 µM. For the same molecule, in data set [4] (Cell viability (%)), the viability at 2 h, 3.12 µM came out at 106%; the viability at 2 h, 6.25 µM amounted to 106%; the viability at 2 h, 12.5 µM came to 98%; the viability at 2 h, 25 µM amounted to 94%. Further, in data set [4] (Cell viability (%)), the viability at 2 h, 50 µM came out at 74%; the viability at 2 h, 100 µM turned out to be 22%; the viability at 24 h, 3.12 µM came out at 115 ± 23%; the viability at 24 h, 6.25 µM worked out at 109 ± 24%. In [4] (Cell viability (%)), the viability at 24 h, 12.5 µM came to 112 ± 20%; the viability at 24 h, 25 µM was 120 ± 13%; the viability at 24 h, 50 µM is 82 ± 10%; the viability at 24 h, 100 µM was 4 ± 2%. This molecule registered a CC50 in data set [5] of 54.3 µM. Besides, in data set [6], the “Content in water (%) random” value is on record as 53%, the “Content in water (%) α-helix” value is given as 11% and the “Content in water (%) β-strand” value is reported as 36%.
`N=C(N)NCCC[C@H](N)C(=O)O` [arginine]: in data set [7], the “pK a1” value is recorded as 2.18, the “pK a2” value is given as 9.09 and the “pK a3” value is given as 13.20.
`NCCCC[C@H](N)C(=O)O` [lysine]: in data set [7], the pK a is on record as 10.94.
For the molecule “FVQWFSKFLGRIL [TL, 13-mer linear antimicrobial peptide from Rana temporaria]”, the MIC in data set [8] was 6.25 µM.

B1: peptide 2 (cyclic Temporin L analogue; TLcyc with D-Glu at position 10) (peptide, UniProt P57104 1-13, looked up)
peptide: FVPWFKKF[dL][dE]RIL-NH2
modifications: lactam 6-10
notes: peptide 2 is the [Pro3,DLeu9]TL frame cyclised between positions 6 (Lys) and 10 (D-Glu); Free N-terminal amine; also called compound 2; source: synthetic peptide (Fmoc-based US-SPPS, RP-HPLC purified, >97%)
Take B1: the “% aggregation at P/L 0.5” value in [9] is approximately 60%.

B2: peptide 6 (cyclic Temporin L analogue with a guanidino pendant on the para position of Phe1) (peptide, UniProt P57104 1-13, looked up)
peptide: [Phe(4-guanidino)]VPWFKKF[dL][dE]RIL-NH2
modifications: lactam 6-10; N-terminus assumed
SMILES: CC[C@H](C)[C@H](NC(=O)[C@H](CCCNC(=N)N)NC(=O)[C@H]1CCC(=O)NCCCC[C@H](NC(=O)[C@H](Cc2ccccc2)NC(=O)[C@H](Cc2c[nH]c3ccccc23)NC(=O)[C@@H]2CCCN2C(=O)[C@@H](NC(=O)[C@@H](N)Cc2ccc(NC(=N)N)cc2)C(C)C)C(=O)N[C@@H](CCCCN)C(=O)N[C@@H](Cc2ccccc2)C(=O)N[C@H](CC(C)C)C(=O)N1)C(=O)N[C@@H](CC(C)C)C(N)=O
notes: peptide 6 is peptide 2 with (p-guanidino)Phe in place of Phe1; also called compound 6; source: synthetic peptide (Fmoc-based US-SPPS, RP-HPLC purified, >97%)
With B2, in data set [9], the “% aggregation at P/L 0.5” value is approximately 40%.

B3: peptide 7 (cyclic Temporin L analogue with a guanidino pendant at position 4 of the Pro3 ring) (peptide, UniProt P57104 1-13, looked up)
peptide: FV[Pro(4-guanidino)]WFKKF[dL][dE]RIL-NH2
modifications: lactam 6-10
notes: peptide 7 is peptide 2 with (4-guanidino)Pro in place of Pro3; also called compound 7; source: synthetic peptide (Fmoc-based US-SPPS, RP-HPLC purified, >97%)
Regarding B3, the “% aggregation at P/L 0.5” value in [9] was approximately 60%.

These data come from publication PMC12703733, “Probing Guanidino Pendant or Bridged Groups in Cyclic Antimicrobial Peptides Derived from Temporin L: A Strategy to Improve Efficacy against Gram-Negative Bacteria” (Journal of Medicinal Chemistry, 2025).
